Ki data for 13 compounds are collected here from patent publication US8580794B2 (AbbVie Inc., priority 2009, dated 2013).

This test addresses GST-Bc1-2 (Homo sapiens, UniProt P10415). Kind of test: Time Resolved-Fluorescence Resonance Energy Transfer (TR-FRET) Bcl-2 binding assay with F-Bak peptide probe. As to conditions: GST-Bcl-2 1 nM, F-Bak probe 100 nM, Tb-anti-GST 1 nM; '<' = below limit of detection; read-out: TR-FRET Bcl-2 Binding Ki. (In general: Time-resolved FRET reads energy transfer from a long-lived donor to a nearby acceptor.)

One may read the Ki as the equilibrium dissociation constant of an inhibitor or competing ligand from its target.

Sequence of GST-Bc1-2 (P10415 whole entry): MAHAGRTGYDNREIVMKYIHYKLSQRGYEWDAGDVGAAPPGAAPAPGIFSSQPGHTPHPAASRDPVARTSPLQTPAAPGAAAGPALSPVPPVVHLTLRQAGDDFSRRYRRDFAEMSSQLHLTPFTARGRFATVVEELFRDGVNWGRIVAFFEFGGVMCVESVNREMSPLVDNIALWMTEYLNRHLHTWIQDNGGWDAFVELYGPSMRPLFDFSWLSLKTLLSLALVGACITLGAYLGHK

For `CC1(C)CCC(CN2CCN(c3ccc(C(=O)NS(=O)(=O)c4ccc(N[C@@H]5CCN(C6CC6)C5)c([N+](=O)[O-])c4)c(Oc4cnc5[nH]ccc5c4)c3)CC2)=C(c2ccc(Cl)cc2)C1` [Example 144, 4-(4-{[2-(4-chlorophenyl)-4,4-dimethylcyclohex-1-en-1-yl]methyl}piperazin-1-yl)-N-[(4-{[(3R)-1-cyclopropylpyrrolidin-3-yl]amino}-3-nitrophenyl)sulfonyl]-2-(1H-pyrrolo[2,3-b]pyridin-5-yloxy)benzamide], the inhibition constant (Ki) was < 0.01 nM. As for `CC1(C)CCC(CN2CCN(c3ccc(C(=O)NS(=O)(=O)c4ccc(NC[C@@H]5CCN(C6CCOCC6)C5)c([N+](=O)[O-])c4)c(Oc4cnc5[nH]ccc5c4)c3)CC2)=C(c2ccc(Cl)cc2)C1` [Example 145, 4-(4-{[2-(4-chlorophenyl)-4,4-dimethylcyclohex-1-en-1-yl]methyl}piperazin-1-yl)-N-{[3-nitro-4-({[(3S)-1-tetrahydro-2H-pyran-4-ylpyrrolidin-3-yl]methyl}amino)phenyl]sulfonyl}-2-(1H-pyrrolo[2,3-b]pyridin-5-yloxy)benzamide], the figure is < 0.01 nM; as for `CC(C)(CO)CNc1ccc(S(=O)(=O)NC(=O)c2ccc(N3CCN(CC4=C(c5ccc(Cl)cc5)CC(C)(C)CC4)CC3)cc2Oc2cnc3[nH]ccc3c2)cc1[N+](=O)[O-]` [Example 146, 4-(4-{[2-(4-chlorophenyl)-4,4-dimethylcyclohex-1-en-1-yl]methyl}piperazin-1-yl)-N-({4-[(3-hydroxy-2,2-dimethylpropyl)amino]-3-nitrophenyl}sulfonyl)-2-(1H-pyrrolo[2,3-b]pyridin-5-yloxy)benzamide], < 0.01 nM. Take `CC1(C)CCC(CN2CCN(c3ccc(C(=O)NS(=O)(=O)c4ccc(NCC5CCCN(S(C)(=O)=O)C5)c([N+](=O)[O-])c4)c(Oc4cnc5[nH]ccc5c4)c3)CC2)=C(c2ccc(Cl)cc2)C1` (stereo not shown) [Example 147, 4-(4-{[2-(4-chlorophenyl)-4,4-dimethylcyclohex-1-en-1-yl]methyl}piperazin-1-yl)-N-{[4-({[1-(methylsulfonyl)piperidin-3-yl]methyl}amino)-3-nitrophenyl]sulfonyl}-2-(1H-pyrrolo[2,3-b]pyridin-5-yloxy)benzamide]: the Ki was < 0.01 nM. As for `CC(=O)N1CCCC(CNc2ccc(S(=O)(=O)NC(=O)c3ccc(N4CCN(CC5=C(c6ccc(Cl)cc6)CC(C)(C)CC5)CC4)cc3Oc3cnc4[nH]ccc4c3)cc2[N+](=O)[O-])C1` (stereo not shown) [Example 148, N-[(4-{[(1-acetylpiperidin-3-yl)methyl]amino}-3-nitrophenyl)sulfonyl]-4-(4-{[2-(4-chlorophenyl)-4,4-dimethylcyclohex-1-en-1-yl]methyl}piperazin-1-yl)-2-(1H-pyrrolo[2,3-b]pyridin-5-yloxy)benzamide], the figure is < 0.01 nM.

Consider `CC1(C)CCC(CN2CCN(c3ccc(C(=O)NS(=O)(=O)c4ccc(N[C@@H]5CCN(S(C)(=O)=O)C5)c([N+](=O)[O-])c4)c(Oc4cnc5[nH]ccc5c4)c3)CC2)=C(c2ccc(Cl)cc2)C1` [Example 149, 4-(4-{[2-(4-chlorophenyl)-4,4-dimethylcyclohex-1-en-1-yl]methyl}piperazin-1-yl)-N-[(4-{[(3R)-1-(methylsulfonyl)pyrrolidin-3-yl]amino}-3-nitrophenyl)sulfonyl]-2-(1H-pyrrolo[2,3-b]pyridin-5-yloxy)benzamide], for which the inhibition constant (Ki) was < 0.01 nM. For `CC1(C)CCCC(CN2CCN(c3ccc(C(=O)NS(=O)(=O)c4ccc(NCC5CCOCC5)c([N+](=O)[O-])c4)c(Oc4cnc5[nH]ccc5c4)c3)CC2)=C1c1ccc(Cl)cc1` [Example 150, 4-(4-{[2-(4-chlorophenyl)-3,3-dimethylcyclohex-1-en-1-yl]methyl}piperazin-1-yl)-N-({3-nitro-4-[(tetrahydro-2H-pyran-4-ylmethyl)amino]phenyl}sulfonyl)-2-(1H-pyrrolo[2,3-b]pyridin-5-yloxy)benzamide], the Ki is < 0.01 nM.

For the compound `CC1(C)CCC(CN2CCN(c3ccc(C(=O)NS(=O)(=O)c4ccc(NC5CN(C(CF)CF)C5)c([N+](=O)[O-])c4)c(Oc4cnc5[nH]ccc5c4)c3)CC2)=C(c2ccc(Cl)cc2)C1` [Example 151, 4-(4-{[2-(4-chlorophenyl)-4,4-dimethylcyclohex-1-en-1-yl]methyl}piperazin-1-yl)-N-{[4-({1-[2-fluoro-1-(fluoromethyl)ethyl]azetidin-3-yl}amino)-3-nitrophenyl]sulfonyl}-2-(1H-pyrrolo[2,3-b]pyridin-5-yloxy)benzamide], the Ki stood at 0.017 nM. As for `CC1(C)CCC(CN2CCN(c3ccc(C(=O)NS(=O)(=O)c4ccc(NCC5CCN(S(C)(=O)=O)C5)c([N+](=O)[O-])c4)c(Oc4cnc5[nH]ccc5c4)c3)CC2)=C(c2ccc(Cl)cc2)C1` (stereo not shown) [Example 152, 4-(4-{[2-(4-chlorophenyl)-4,4-dimethylcyclohex-1-en-1-yl]methyl}piperazin-1-yl)-N-{[4-({[1-(methylsulfonyl)pyrrolidin-3-yl]methyl}amino)-3-nitrophenyl]sulfonyl}-2-(1H-pyrrolo[2,3-b]pyridin-5-yloxy)benzamide], the figure is < 0.01 nM; as for `CC(=O)N1CCC(CNc2ccc(S(=O)(=O)NC(=O)c3ccc(N4CCN(CC5=C(c6ccc(Cl)cc6)CC(C)(C)CC5)CC4)cc3Oc3cnc4[nH]ccc4c3)cc2[N+](=O)[O-])C1` (stereo not shown) [Example 153, N-[(4-{[(1-acetylpyrrolidin-3-yl)methyl]amino}-3-nitrophenyl)sulfonyl]-4-(4-{[2-(4-chlorophenyl)-4,4-dimethylcyclohex-1-en-1-yl]methyl}piperazin-1-yl)-2-(1H-pyrrolo[2,3-b]pyridin-5-yloxy)benzamide], < 0.01 nM; as for `CC(=O)N1CC[C@@H](Nc2ccc(S(=O)(=O)NC(=O)c3ccc(N4CCN(CC5=C(c6ccc(Cl)cc6)CC(C)(C)CC5)CC4)cc3Oc3cnc4[nH]ccc4c3)cc2[N+](=O)[O-])C1` [Example 154, N-[(4-{[(3R)-1-acetylpyrrolidin-3-yl]amino}-3-nitrophenyl)sulfonyl]-4-(4-{[2-(4-chlorophenyl)-4,4-dimethylcyclohex-1-en-1-yl]methyl}piperazin-1-yl)-2-(1H-pyrrolo[2,3-b]pyridin-5-yloxy)benzamide], < 0.01 nM.

With `COCC(C)(C)CNc1ccc(S(=O)(=O)NC(=O)c2ccc(N3CCN(CC4=C(c5ccc(Cl)cc5)CC(C)(C)CC4)CC3)cc2Oc2cnc3[nH]ccc3c2)cc1[N+](=O)[O-]` [Example 155, 4-(4-{[2-(4-chlorophenyl)-4,4-dimethylcyclohex-1-en-1-yl]methyl}piperazin-1-yl)-N-({4-[(3-methoxy-2,2-dimethylpropyl)amino]-3-nitrophenyl}sulfonyl)-2-(1H-pyrrolo[2,3-b]pyridin-5-yloxy)benzamide], the Ki came to 0.059 nM.

For the compound `CC1(C)CCC(CN2CCN(c3ccc(C(=O)NS(=O)(=O)c4ccc(NC[C@@H]5CC[C@@H](O)C5)c([N+](=O)[O-])c4)c(Oc4cnc5[nH]ccc5c4)c3)CC2)=C(c2ccc(Cl)cc2)C1` [Example 156, 4-(4-{[2-(4-chlorophenyl)-4,4-dimethylcyclohex-1-en-1-yl]methyl}piperazin-1-yl)-N-{[4-({[(1R,3R)-3-hydroxycyclopentyl]methyl}amino)-3-nitrophenyl]sulfonyl}-2-(1H-pyrrolo[2,3-b]pyridin-5-yloxy)benzamide], the Ki is < 0.01 nM.
